# Key:
# GTPase KRas = GTPase KRas (Homo sapiens, UniProt P01116, G12V); test: Inhibition of alexa fluor 647-labeled kinase tracer 314 binding to biotinylated-KRAS G12V mutant (unknown origin) measured after 60 mins by HTRF competition binding assay; settings: read-out: IC50
# [1] = Inhibition of GDP-tagged biotinylated KRas G12C mutant (unknown origin)/GST-Raf (unknown origin) assessed as SOS-mediated nucleotide exchange measured after 1 hr by HRTF assay; design: species or system Homo sapiens
# [2] = system: GTPase KRas (Homo sapiens), P01116 [G12V]; test: Inhibition of alexa fluor 647-labeled kinase tracer 314 binding to biotinylated-KRAS G12V mutant (unknown origin) at 100 uM measured after 60 mins by HTRF competition binding assay
Compound,IC50 (GTPase KRas) [µM],IC50 [1] [µM],inhibition [2] [%]
CC(C)C[C@H](NC(=O)[C@@H]1COCc2cnnn2CCCCC(=O)NCC(=O)N2CCOC[C@H]2C(=O)N[C@@H](Cc2cccc3ccccc23)C(=O)N1)C(N)=O,6.5,5,–
CC[C@H](C)[C@@H]1NC(=O)[C@@H]2CCCN2C(=O)[C@H](Cc2ccc(O)cc2)NC(=O)CCCCn2nncc2COC[C@@H](C(=O)N[C@@H](CC(C)C)C(N)=O)NC1=O,> 100,> 30,28
CC[C@H](C)[C@@H]1NC(=O)[C@@H]2CCCN2C(=O)[C@H](Cc2ccccc2)NC(=O)CCCc2cn(nn2)C[C@@H](C(=O)N[C@@H](CC(C)C)C(N)=O)NC1=O,> 100,> 30,8
CC[C@H](C)[C@@H]1NC(=O)[C@@H]2CCCN2C(=O)CNC(=O)CCCc2cnnn2CC[C@@H](C(=O)N[C@@H](CC(C)C)C(N)=O)NC1=O,> 100,–,22
CC[C@H](C)[C@@H]1NC(=O)[C@@H]2CCCN2C(=O)[C@H](C)NC(=O)CCCC#CC#CCOC[C@@H](C(=O)N[C@@H](CC(C)C)C(N)=O)NC1=O,> 100,–,0
CC[C@H](C)[C@@H]1NC(=O)[C@@H]2CCCN2C(=O)[C@H](Cc2ccc(O)cc2)NC(=O)CCCCn2nncc2CSC[C@@H](C(=O)N[C@@H](CC(C)C)C(N)=O)NC1=O,> 100,> 30,20
CC(C)C[C@H](NC(=O)[C@@H]1COCc2cnnn2CC(=O)NCC(=O)N2CCC[C@H]2C(=O)N[C@@H](Cc2cccc3ccccc23)C(=O)N1)C(N)=O,9.6,3.2,–
CC[C@H](C)[C@@H]1NC(=O)[C@@H]2CCCN2C(=O)CNC(=O)CCCC#CC#CCOC[C@@H](C(=O)N[C@@H](CC(C)C)C(N)=O)NC1=O,> 100,–,0
CC[C@H](C)[C@@H]1NC(=O)[C@@H]2CCCN2C(=O)CNC(=O)CCCCn2nncc2COC[C@@H](C(=O)N[C@@H](CC(C)C)C(N)=O)NC1=O,100,–,48
CC[C@H](C)[C@@H]1NC(=O)[C@@H]2CCCN2C(=O)[C@H](C)NC(=O)c2ccccc2/C=C/COC[C@@H](C(=O)N[C@@H](CC(C)C)C(N)=O)NC1=O,> 100,–,25
C=C1/C=C/CCCC(=O)N[C@@H](C)C(=O)N2CCC[C@H]2C(=O)N[C@@H]([C@@H](C)CC)C(=O)N[C@H](C(=O)N[C@@H](CC(C)C)C(N)=O)CSC1,> 100,–,28
CC(C)C[C@H](NC(=O)[C@H]1CSCc2cnnn2CCCCC(=O)NCC(=O)N2CCC[C@H]2C(=O)N[C@@H](Cc2cccc3ccccc23)C(=O)N1)C(N)=O,11,2.5,–
CC[C@H](C)[C@@H]1NC(=O)[C@@H]2CCCN2C(=O)[C@H](Cc2ccc(O)cc2)NC(=O)CCc2cnnn2CC[C@@H](C(=O)N[C@@H](CC(C)C)C(N)=O)NC1=O,> 100,–,44
CC[C@H](C)[C@@H]1NC(=O)[C@@H]2CCCN2C(=O)[C@H](Cc2ccccc2)NC(=O)CCCCn2nncc2COC[C@@H](C(=O)N[C@@H](CC(C)C)C(N)=O)NC1=O,> 100,–,38
CC(C)C[C@H](NC(=O)[C@@H]1COCc2cnnn2CCC(=O)NCC(=O)N2CCC[C@H]2C(=O)N[C@@H](Cc2cccc3ccccc23)C(=O)N1)C(N)=O,7,3.6,–
C=C1/C=C/COC[C@@H](C(=O)N[C@@H](CC(C)C)C(N)=O)NC(=O)[C@H]([C@@H](C)CC)NC(=O)[C@@H]2CCCN2C(=O)CNC(=O)C1,98,–,46
CC(C)C[C@H](NC(=O)[C@@H]1COCc2cnnn2CCCC(=O)NCC(=O)N2CCC[C@H]2C(=O)N[C@@H](Cc2cccc3ccccc23)C(=O)N1)C(N)=O,10,4.1,–
CC[C@H](C)[C@@H]1NC(=O)[C@@H]2CCCN2C(=O)[C@H](C)NC(=O)CCCCn2nncc2COC[C@@H](C(=O)N[C@@H](CC(C)C)C(N)=O)NC1=O,> 100,–,30
C=C1/C=C/COC[C@@H](C(=O)N[C@@H](CC(C)C)C(N)=O)NC(=O)[C@H]([C@@H](C)CC)NC(=O)[C@@H]2CCCN2C(=O)CNC(=O)CC1,> 100,–,21
CC[C@H](C)[C@@H]1NC(=O)[C@@H]2CCCN2C(=O)CNC(=O)CCCn2nncc2COC[C@@H](C(=O)N[C@@H](CC(C)C)C(N)=O)NC1=O,> 100,–,39
CC[C@H](C)[C@@H]1NC(=O)[C@@H]2CCCN2C(=O)[C@H](C)NC(=O)CCC/C=C/COC[C@@H](C(=O)N[C@@H](CC(C)C)C(N)=O)NC1=O,> 100,–,5
CC(C)C[C@H](NC(=O)[C@@H]1COCc2cnnn2CCCCC(=O)NCC(=O)N2CCC[C@H]2C(=O)N[C@@H](Cc2cccc3ccccc23)C(=O)N1)C(N)=O,7.1,2.4,–
CC[C@H](C)[C@@H]1NC(=O)[C@@H]2CCCN2C(=O)[C@H](Cc2ccc(O)cc2)NC(=O)CCCCn2cc(nn2)CSC[C@@H](C(=O)N[C@@H](CC(C)C)C(N)=O)NC1=O,> 100,> 30,0
CC(C)C[C@H](NC(=O)[C@@H]1COCc2cnnn2CCCCC(=O)NCC(=O)N2CCCC[C@H]2C(=O)N[C@@H](Cc2cccc3ccccc23)C(=O)N1)C(N)=O,7.7,2.4,–
CC[C@H](C)[C@@H]1NC(=O)[C@@H]2CCCN2C(=O)[C@H](Cc2ccc(O)cc2)NC(=O)CCCCn2cc(nn2)COC[C@@H](C(=O)N[C@@H](CC(C)C)C(N)=O)NC1=O,> 100,> 30,22
CC[C@H](C)[C@@H]1NC(=O)[C@@H]2CCCN2C(=O)CNC(=O)CCCc2cn(nn2)CC[C@@H](C(=O)N[C@@H](CC(C)C)C(N)=O)NC1=O,> 100,–,6
CC[C@H](C)[C@@H]1NC(=O)[C@@H]2CCCN2C(=O)[C@H](Cc2ccccc2)NC(=O)CCCc2cn(nn2)CC[C@@H](C(=O)N[C@@H](CC(C)C)C(N)=O)NC1=O,> 100,> 30,9
CC[C@H](C)[C@@H]1NC(=O)[C@@H]2CCCN2C(=O)CNC(=O)CCCc2cnnn2C[C@@H](C(=O)N[C@@H](CC(C)C)C(N)=O)NC1=O,> 100,–,16
C[C@H](NC(=O)[C@@H]1COCc2cnnn2CCCCC(=O)NCC(=O)N2CCC[C@H]2C(=O)N[C@@H](Cc2cccc3ccccc23)C(=O)N1)C(N)=O,37,–,–

# Reference: ChEMBL document CHEMBL5055671, “Targeting a Novel KRAS Binding Site: Application of One-Component Stapling of Small (5-6-mer) Peptides” (J Med Chem, 2021)
